For experiment [1], the target named is T1, HbpA; 2-hydroxybiphenyl 3-monooxygenase (Pseudomonas nitroreducens, UniProt O06647).
T1 construct: full length with uncleaved N-terminal His6 tag, spacer and 3C site (21 residues longer than native); pET-YSBLIC-3C, E. coli BL21(DE3); homotetramer; tag not removed for crystals
T1 sequence (O06647 1-586): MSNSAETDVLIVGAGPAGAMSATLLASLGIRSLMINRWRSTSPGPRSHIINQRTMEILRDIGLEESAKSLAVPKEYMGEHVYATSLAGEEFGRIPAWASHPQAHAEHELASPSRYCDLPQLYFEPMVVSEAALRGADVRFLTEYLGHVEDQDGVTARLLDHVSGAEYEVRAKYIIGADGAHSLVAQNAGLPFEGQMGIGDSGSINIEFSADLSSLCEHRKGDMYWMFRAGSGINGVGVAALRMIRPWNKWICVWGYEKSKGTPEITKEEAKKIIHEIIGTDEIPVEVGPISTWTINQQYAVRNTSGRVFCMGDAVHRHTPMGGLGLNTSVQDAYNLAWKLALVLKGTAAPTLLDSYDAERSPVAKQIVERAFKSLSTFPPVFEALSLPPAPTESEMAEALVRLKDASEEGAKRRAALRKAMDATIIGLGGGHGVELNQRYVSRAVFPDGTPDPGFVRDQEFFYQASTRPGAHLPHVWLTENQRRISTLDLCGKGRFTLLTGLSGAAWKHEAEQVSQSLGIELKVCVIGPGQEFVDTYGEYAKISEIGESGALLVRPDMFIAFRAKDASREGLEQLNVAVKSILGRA
Put plainly: UV spectrophotometry of NADH oxidation at […] nm. It counts as biochemical. As to conditions: co-substrate NADH; air-saturated buffer; read-out: WT.

Experiment [2] deals with 2-hydroxybiphenyl 3-monooxygenase (HbpA) from Pseudomonas azelaica HBP1 (Pseudomonas azelaica HBP1). Kind of experiment: crystal structure; P1 crystals with four molecules in the asymmetric unit (one tetramer); apo form and FAD complex (crystals soaked in 1 mM FAD); grown in 18 % PEG 3350, 0.15 M KSCN, Bis-Tris propane pH 5.5, protein 10 mg/mL.
Experiment [3] addresses T1, HbpA; 2-hydroxybiphenyl 3-monooxygenase. Put plainly: X-ray crystal structure, […] Å, FAD soak. It counts as binding. As to conditions: crystals soaked in 1 mM FAD; flavin in the "in" position.

Regarding `Oc1ccccc1-c1ccccc1` [2HBP], the Km in experiment [1] was 3.3 ± 0.2 µM.
In experiment [2], “2-hydroxybiphenyl 3-monooxygenase (HbpA) from Pseudomonas azelaica HBP1 (enzyme)” yielded a stoichiometry N of 4.
Regarding `Cc1cc2nc3c(=O)[nH]c(=O)nc-3n(C[C@H](O)[C@H](O)[C@H](O)COP(=O)(O)OP(=O)(O)OC[C@H]3O[C@@H](n4cnc5c(N)ncnc54)[C@H](O)[C@@H]3O)c2cc1C` [FAD], the “X-ray crystal structure, 2.03 Å, FAD soak” value in experiment [3] was “both apo-HbpA and the FAD complex have been deposited in the Protein Data Bank”.

Usually stoichiometry N stands for a count of units in the complex or per binding partner.
